According to patent publication US20100130515A1, “Polymorphs and solvates of a pharmaceutical and method of making” (BIOGEN IDEC INC., priority 2007, published 2010):

Tests used:
[1] = Relative stability of forms A and B by vapour diffusion experiment (XRPD); format: physicochemical; details: NMP vapour, room temperature; for relative stability of the polymorphs: intimate mixture of forms A and B, followed by XRPD
Description: The relative stabilities of the forms A and B was determined by a vapour diffusion experiment. Approximately equal amounts of the two forms were ground together to produce an intimate mixture. The mixture was packed into a silicon 510-cut recessed wafer XRPD holder and the XRPD of the mixture determined. The holder was then placed in a covered dish containing NMP (a known solvent 1) at room temperature. The mixture was re-examined from time to time to monitor any changes in the XRPD pattern.
The traces from bottom to top in FIG. 8 were recorded initially, at 24 hours, at 3 days, at 1 week, at 10 days, and at 23 days; the topmost traces are a form A reference and a form B reference.

[2] = Relative stability of forms D and H by vapour diffusion experiment (XRPD); format: physicochemical; details: inferred from the higher desolvation temperature, XRPD results inconclusive
Excerpt: The relative stabilities of Forms D and H was investigated by a vapour diffusion experiment. Approximately equal amounts of the two forms were combined to produce an intimate mixture. The mixture was packed into a silicon XRPD holder and the XRPD of the mixture determined. The holder was then placed in a covered dish containing THF:NMP approx. 90:10 v/v at room temperature. The mixture was re-examined from time to time to monitor any changes in the XRPD pattern.
There was been no significant change in the XRPD traces over 12 days.

cataleptic responses = details: cited from earlier work
Parkinsonian patients = details: cited from earlier work

With `Cc1cc(Cn2nnc3c(-c4ccco4)nc(N)nc32)ccc1N` [Form A, 3-(4-amino-3-methylbenzyl)-7-(furan-2-yl)-3H-[1,2,3]triazolo[4,5-d]pyrimidin-5-amine] the “relative stability of the polymorphs” value [1] was “more stable polymorph” and the “relative stability of the polymorphs” value ([1]; listed as form A) was “more thermodynamically more stable”.
For `Cc1cc(Cn2nnc3c(-c4ccco4)nc(N)nc32)ccc1N` [Form B, 3-(4-amino-3-methylbenzyl)-7-(furan-2-yl)-3H-[1,2,3]triazolo[4,5-d]pyrimidin-5-amine], the “time point by which the XRPD peaks characteristic of Form B disappear completely” value ([1]; mixture of forms A and B) was ≤ 23 days.
For `Cc1cc(Cn2nnc3c(-c4ccco4)nc(N)nc32)ccc1N` [Form H, 3-(4-amino-3-methylbenzyl)-7-(furan-2-yl)-3H-[1,2,3]triazolo[4,5-d]pyrimidin-5-amine], the “relative stability of the THF solvates” value [2] was “more likely to be the stable form”.
For `CCCn1c(=O)c2c(nc(/C=C/c3ccc(OC)c(OC)c3)n2C)n(CCC)c1=O` [KF 17837, E-8-(3,4dimethoxystyryl)-1,3-dipropyl-7-methylxanthine], the “anticataleptic effects of a subthreshold dose of L-DOPA plus benserazide” value (cataleptic responses; in vivo) is listed as “potentiated”, the “catalepsy induced by haloperidol and reserpine” value (cataleptic responses; in vivo) is listed as “reduced” and the “cataleptic responses induced by intracerebroventricular CGS 21680” value (cataleptic responses; oral administration) is listed as “significantly ameliorated”.
In the case of `Cn1c(=O)c2[nH]cnc2n(C)c1=O` [theophylline, 1,3-dimethylxanthine], the “mean objective disability scores” value (Parkinsonian patients; 15 Parkinsonian patients, up to 12 weeks, 150 mg/day) is listed as “significant improvements”, the “patients reporting moderate or marked subjective improvement” value (Parkinsonian patients; of 15 Parkinsonian patients, up to 12 weeks, 150 mg/day) is listed as 11 and the serum theophylline levels (Parkinsonian patients; slow release oral preparation 150 mg/day, after one week) is listed as 4.44 mg/L.
